Test system: STZ-induced diabetic mice
Test: Acute hypoglycaemic assay in STZ-diabetic mice
Assay type: in vivo
Conditions: for Blood glucose concentration: mean ± SEM, six mice
Description: The antidiabetic activity was determined by using a standard method. […] Especially, compound 7c caused significant decreases in blood glucose levels when compared with vehicle-treated groups (p < .05). […] In STZ-diabetic animals, the hypoglycaemic effect of pterostilbene (40 mg/kg of bw) was larger than 50% since 5 h and persisted throughout the experiment. Target compound 7c (40 mg/kg of bw) caused significant decreases in blood glucose levels compared with pterostilbene (40 mg/kg of bw).
Type II DM was induced in mice by a single intraperitoneal injection of freshly prepared STZ (Sigma Aldrich, St. Louis, MO) dissolved in 0.1 M citrate buffer, pH 4.5, in a […] of 120 mg/kg of bw. After seven days of STZ administration, blood glucose levels of each mouse were determined. Mice with blood glucose levels higher than 11 mM were considered diabetic and were included in the study.
STZ-induced diabetic mice and normal mice were placed in single cages with wire-net floors and deprived of food for 12 h before experimentation but allowed free access to tap water throughout. The compounds (at the doses of 10, 40, and 100 mg/kg of bw) were suspended in 0.05% Tween-80 in saline solution. Glibenclamide (10 mg/kg of bw) was suspended in the same vehicle. The target compounds were freshly prepared immediately before experimentation and administered by the intragastrical route at the doses of 10 ml/kg of bw. Control mice received only the vehicle (0.05% Tween-80 in saline solution) by the same route. Blood glucose levels were measured at 0, 1.5, 3, 5, 7, and 9 h after drugs administration.

COc1cc(/C=C/c2ccc(OCCCCCCO[N+](=O)[O-])cc2)cc(OC)c1 [3c]
Blood glucose concentration (dose 10 mg/kg per os, 0 h): 22.6 ± 7.0 mM | Blood glucose concentration (dose 10 mg/kg per os, 1.5 h): 18.1 ± 7.3 mM | % Variation of glycaemia (dose 10 mg/kg per os, 1.5 h vs 0 h): –20.13% | Blood glucose concentration (dose 10 mg/kg per os, 3 h): 17.0 ± 6.6 mM | % Variation of glycaemia (dose 10 mg/kg per os, 3 h vs 0 h): –24.78% | Blood glucose concentration (dose 10 mg/kg per os, 5 h): 16.8 ± 6.1 mM | % Variation of glycaemia (dose 10 mg/kg per os, 5 h vs 0 h): –25.66% | Blood glucose concentration (dose 10 mg/kg per os, 7 h): 15.7 ± 4.3 mM | % Variation of glycaemia (dose 10 mg/kg per os, 7 h vs 0 h): –30.53% | Blood glucose concentration (dose 10 mg/kg per os, 9 h): 13.2 ± 3.5 mM | % Variation of glycaemia (dose 10 mg/kg per os, 9 h vs 0 h): –41.59% | Blood glucose concentration (dose 40 mg/kg per os, 0 h): 21.7 ± 5.7 mM | Blood glucose concentration (dose 40 mg/kg per os, 1.5 h): 17.2 ± 5.6 mM | % Variation of glycaemia (dose 40 mg/kg per os, 1.5 h vs 0 h): –20.74% | Blood glucose concentration (dose 40 mg/kg per os, 3 h): 16.3 ± 7.5 mM | % Variation of glycaemia (dose 40 mg/kg per os, 3 h vs 0 h): –25.04% | Blood glucose concentration (dose 40 mg/kg per os, 5 h): 15.7 ± 6.4 mM | % Variation of glycaemia (dose 40 mg/kg per os, 5 h vs 0 h): –27.57% | Blood glucose concentration (dose 40 mg/kg per os, 7 h): 14.3 ± 9.6 mM | % Variation of glycaemia (dose 40 mg/kg per os, 7 h vs 0 h): –34.02% | Blood glucose concentration (dose 40 mg/kg per os, 9 h): 9.9 ± 4.6 mM | % Variation of glycaemia (dose 40 mg/kg per os, 9 h vs 0 h): –54.30% | Blood glucose concentration (dose 100 mg/kg per os, 0 h): 18.6 ± 1.9 mM | Blood glucose concentration (dose 100 mg/kg per os, 1.5 h): 15.9 ± 3.6 mM | % Variation of glycaemia (dose 100 mg/kg per os, 1.5 h vs 0 h): –14.34% | Blood glucose concentration (dose 100 mg/kg per os, 3 h): 15.2 ± 3.0 mM | % Variation of glycaemia (dose 100 mg/kg per os, 3 h vs 0 h): –18.28% | Blood glucose concentration (dose 100 mg/kg per os, 5 h): 15.1 ± 3.7 mM | % Variation of glycaemia (dose 100 mg/kg per os, 5 h vs 0 h): –19.00% | Blood glucose concentration (dose 100 mg/kg per os, 7 h): 13.4 ± 4.7 mM | % Variation of glycaemia (dose 100 mg/kg per os, 7 h vs 0 h): –28.23% | Blood glucose concentration (dose 100 mg/kg per os, 9 h): 11.1 ± 3.0 mM | % Variation of glycaemia (dose 100 mg/kg per os, 9 h vs 0 h): –40.32%

Source: PMC7011920, “Synthesis and biological evaluation of stilbene derivatives coupled to NO donors as potential antidiabetic agents” (Journal of Enzyme Inhibition and Medicinal Chemistry, 2018)
